Test results from PMC11094793, “Discovery of LLC0424 as a Potent and Selective in Vivo NSD2 PROTAC Degrader” (Journal of Medicinal Chemistry, 2024).

Target: T1, NSD2 (Homo sapiens, UniProt O96028)
T1 sequence (O96028 1-1365): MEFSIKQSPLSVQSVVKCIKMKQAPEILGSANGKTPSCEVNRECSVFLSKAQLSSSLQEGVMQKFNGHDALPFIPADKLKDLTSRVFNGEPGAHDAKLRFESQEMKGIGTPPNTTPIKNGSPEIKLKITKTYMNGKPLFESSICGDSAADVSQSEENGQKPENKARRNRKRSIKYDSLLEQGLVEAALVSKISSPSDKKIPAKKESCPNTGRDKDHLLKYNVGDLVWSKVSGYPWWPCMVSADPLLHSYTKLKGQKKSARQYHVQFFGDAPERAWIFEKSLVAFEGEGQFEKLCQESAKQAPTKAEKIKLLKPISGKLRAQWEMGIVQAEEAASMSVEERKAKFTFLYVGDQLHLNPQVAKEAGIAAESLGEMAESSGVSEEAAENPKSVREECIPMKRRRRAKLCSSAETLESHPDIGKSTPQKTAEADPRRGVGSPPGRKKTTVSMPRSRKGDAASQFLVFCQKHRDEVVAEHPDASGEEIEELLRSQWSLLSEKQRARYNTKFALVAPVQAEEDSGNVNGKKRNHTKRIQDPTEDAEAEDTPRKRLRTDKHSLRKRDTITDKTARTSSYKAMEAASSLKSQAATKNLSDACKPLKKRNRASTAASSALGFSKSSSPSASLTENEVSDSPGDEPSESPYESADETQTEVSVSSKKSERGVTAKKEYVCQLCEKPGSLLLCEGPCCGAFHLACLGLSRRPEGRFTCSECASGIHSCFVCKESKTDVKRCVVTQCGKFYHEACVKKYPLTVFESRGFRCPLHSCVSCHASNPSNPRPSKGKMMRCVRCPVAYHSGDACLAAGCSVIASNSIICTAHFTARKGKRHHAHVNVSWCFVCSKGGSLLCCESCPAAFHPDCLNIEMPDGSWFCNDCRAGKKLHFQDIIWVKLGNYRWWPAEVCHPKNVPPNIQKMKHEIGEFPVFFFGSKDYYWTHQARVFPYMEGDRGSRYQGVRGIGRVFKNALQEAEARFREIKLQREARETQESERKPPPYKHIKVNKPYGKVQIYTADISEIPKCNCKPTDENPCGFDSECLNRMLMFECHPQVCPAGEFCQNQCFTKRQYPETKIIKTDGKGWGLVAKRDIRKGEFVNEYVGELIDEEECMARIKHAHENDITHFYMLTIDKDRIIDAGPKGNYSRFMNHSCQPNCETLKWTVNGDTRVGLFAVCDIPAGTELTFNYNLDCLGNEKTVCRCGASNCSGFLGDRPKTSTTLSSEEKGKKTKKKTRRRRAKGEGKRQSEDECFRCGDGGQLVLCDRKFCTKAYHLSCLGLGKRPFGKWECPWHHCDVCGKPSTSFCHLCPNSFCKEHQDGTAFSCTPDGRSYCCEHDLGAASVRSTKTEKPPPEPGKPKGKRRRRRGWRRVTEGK
Assay: Pharmacodynamic assessment in 22RV1 xenograft model
Assay type: in vivo, mice
Design: from tissue; host or cells: 22RV1 subcutaneous xenograft tumours in CB17 SCID mice
Conditions: 5 consecutive days
Description: We finally performed pharmacodynamic assessment of LLC0424 in both the SEM and 22RV1 xenograft model. Based on the solubility of LLC0424 and the tolerance of the mice, we chose 60 mg/kg as the dosage for the pharmacodynamic study. LLC0424 was administrated by intravenous (iv) or intraperitoneal (ip) injection at a dose of 60 mg/kg for 5 consecutive days. The tumor tissues were harvested at day 5 and subjected to histology and Western blot analysis (Figure 7A, and SI, Figure S6A).
First, 6–8 weeks old male CB17 severe combined immunodeficiency (SCID) mice were procured from the University of Michigan breeding colony. Subcutaneous tumors were established at both sides of the dorsal flank of mice. Tumors were measured at least biweekly using digital calipers following the formula (π/6) (L × W2), where L is length and W is width of the tumor. At the end of the studies, mice were sacrificed and tumors extracted. For each tumor, a part is […] followed by embedding in paraffin to make tissue blocks. The blocks were sectioned at […] for immunohistochemistry analysis. Another part is made into tissue lysates for Western blotting analysis. The University of Michigan Institutional Animal Care and Use Committee (IACUC) approved all in vivo studies. […]

NSD2 level in tumor tissue (60 mg/kg iv or ip, versus vehicle): significantly downregulated
NSD2 degradation, iv versus ip administration (60 mg/kg): comparable level of NSD2 degradation
Structure (SMILES): O=C1CCC(N2C(=O)c3ccc(N4CCC(NC(=O)c5ccc(NC(=O)c6ccc(CN(C(=O)c7ccc8c(c7)OCC(=O)N8)C7CC7)cc6)cc5)CC4)cc3C2=O)C(=O)N1 (centres unmarked) [compound 10l, N-Cyclopropyl-N-(4-((4-((1-(2-(2,6-dioxopiperidin-3-yl)-1,3-dioxoisoindolin-5-yl)piperidin-4-yl)carbamoyl)phenyl)carbamoyl)benzyl)-3-oxo-3,4-dihydro-2H-benzo[b][1,4]oxazine-7-carboxamide]
